Measured values published in patent publication US12161089B2, “Parasiticidal collar comprising isoxazoline compounds” (Boehringer Ingelheim Animal Health USA Inc., priority 2020, dated 2024).

How the values were obtained:
[1] = Isoxazoline compounds in dog hair; format: in vivo; conditions: hair collected on Day 110 from 5 areas, PVC collars, FIG. 6
Excerpt: Hair samples from each dog were collected on Day 110 from 5 different areas: (1) central thorax, (2) lower back/caudal region, (3) right thorax, (4) left thorax, and […] top of neck/base of skull above collar site. Suitable bioanalytical methods were used for analysis of the three isoxazoline compounds in dog hair. […] Results for the other two isoxazoline compounds Ia and (S)-Ia are very similar.

[2] = Plasma drug concentrations in dogs wearing PVC based isoxazoline collars; format: in vivo, dog; conditions: 11% active, FIG. 5
Procedure: PK data: Blood samples from all the dogs were taken periodically and drug concentrations in the plasma were analyzed (depicted in FIG. 5). […] In other words, these compounds are likely acting by a systemic mechanism, even though they are applied in a topical collar dosage form. These PK data appear also to correlate with the flea and tick efficacy data in Table 6 and 7 (e.g., compound (S)-Ia is the best, (S)-Id is the second, and Ia the third).

Ctenocephalides felis = assay: In-vitro flea exposure effectiveness (contact with collar strips or treated filter papers); conditions: filter paper 21 cm^2 loaded with 500 μL of 10 mg/mL in acetone, 24 (±1) hours; for Geometric Mean No. Live Fleas: 3 vials; for Percentage Reduction Live Fleas: versus acetone only control; for Vial 1 # Live Fleas / Vial 2 # Live Fleas / Vial 3 # Live Fleas: approximately 20 fleas
Procedure: The in-vitro susceptibility of Ctenocephalides felis exposed to treated filter papers and to external device compositions (antiparasitic collar) containing isoxazoline active agents (S)-Ia, (S)-Id and (Ia) was determined, wherein the collars comprise a polyvinyl chloride (PVC) matrix or a polybutylene succinate (PBS) matrix.
To determine the in-vitro susceptibility of Ctenocephalides felis exposed to treated filter papers or to the collars compositions comprising the isoxazoline active agent, approximately 20 fleas were transferred to vials containing either the collars or filter papers in accordance with the test groups outlined in Table 3. On Day 0, approximately 20 fleas were placed in 27×55 mm, 5 dram glass vials containing the collars comprising the active agent as outlined in Table 3 or in 60 mm×40 mm glass vials containing treated filter papers. The filter papers tested in groups 9-12 were loaded with 500 μL of a 10 mg/mL solution containing the active agent dissolved in acetone. […] Test vials were placed in an environmental chamber at approximately 28° C. and approximately 80% RH.
The number of dead fleas in each vial were counted on Day 1 at 24 (±1) hours after initial exposure. Fleas were counted as dead if they were not able to maintain an upright posture.

Structure (SMILES)	Level of the drug in dog hair, top of the neck (collar site) compared with other areas [1]	PK data, order of the compounds (correlating with flea and tick efficacy) [2]	Geometric Mean No. Live Fleas (Ctenocephalides felis)	Percentage Reduction Live Fleas (Ctenocephalides felis)	Vial 1 # Live Fleas (Ctenocephalides felis)	Vial 2 # Live Fleas (Ctenocephalides felis)	Vial 3 # Live Fleas (Ctenocephalides felis)	Isoxazoline compound levels in hair throughout bodies of the dogs [1]
O=C(CNC(=O)c1ccc(C2=NOC(c3cc(Cl)cc(C(F)(F)F)c3)(C(F)(F)F)C2)c2ccccc12)NCC(F)(F)F (centres unmarked) [(Ia), 4-[5-[3-chloro-5-(trifluoromethyl)phenyl]-4,5-dihydro-5-(trifluoromethyl)-3-isoxazolyl]-N-[2-oxo-2-[(2,2,2-trifluoroethyl)amino]ethyl]-1-naphthalanecarboxamide]	very similar	the third	19.6	3.3%	19	21	19	
O=C(CNC(=O)c1ccc(C2=NO[C@@](c3cc(Cl)cc(C(F)(F)F)c3)(C(F)(F)F)C2)c2ccccc12)NCC(F)(F)F [(S)-Ia]	very similar	the best	19.0	6.5%	19	20	18	
O=C(CNC(=O)c1ccc(C2=NO[C@@](c3cc(Cl)c(F)c(C(F)(F)F)c3)(C(F)(F)F)C2)c2ccccc12)NCC(F)(F)F [(S)-Id]	highest level of the drug	the second						detectable
